Assays:
[1] = Binding affinity to polydA-polydT DNA by thermal denaturation assay
[2] = tested on: DNA; experiment: Binding affinity to calf thymus DNA by thermal denaturation assay; format: nucleic-acid assay; conditions: Bos taurus
[3] = tested on: Nucleic Acid; experiment: Binding affinity to polyA-polyU double stranded RNA by thermal denaturation assay; format: nucleic-acid assay
[4] = tested on: Nucleic Acid; experiment: Binding affinity to polyG-polyC double stranded RNA by thermal denaturation assay; format: nucleic-acid assay

log K [1]: 5.1 | log K [2]: 5.1 | ΔTm [2]: 7.3 °C | log K [3]: 5.1 | ΔTm [3]: -1.5 °C | log K [4]: 5.1
SMILES: N=C(N)NC(=O)c1ccc(C(=O)NCCCCNC(=O)c2ccc3ccc4cccc5ccc2c3c45)[nH]1
